Data: patent publication EP0684037B1, “Deodorant compositions” (UNILEVER PLC, priority 1994, dated 1995)

What was measured:
lipoxidase (EC1.13.1.13) = molecular target: T1, lipoxidase (EC1.13.1.13) (Glycine max, UniProt P08170); test: Lipoxidase Inhibition Test (inhibition of the oxidation of linoleic acid by lipoxidase); type: biochemical; details: Lipoxidase Inhibiting Capacity; 0.5% by weight solution in ethanol of the material in test substrate solution; borate buffer pH 9.0; 234 nm
T1 sequence (P08170 1-839): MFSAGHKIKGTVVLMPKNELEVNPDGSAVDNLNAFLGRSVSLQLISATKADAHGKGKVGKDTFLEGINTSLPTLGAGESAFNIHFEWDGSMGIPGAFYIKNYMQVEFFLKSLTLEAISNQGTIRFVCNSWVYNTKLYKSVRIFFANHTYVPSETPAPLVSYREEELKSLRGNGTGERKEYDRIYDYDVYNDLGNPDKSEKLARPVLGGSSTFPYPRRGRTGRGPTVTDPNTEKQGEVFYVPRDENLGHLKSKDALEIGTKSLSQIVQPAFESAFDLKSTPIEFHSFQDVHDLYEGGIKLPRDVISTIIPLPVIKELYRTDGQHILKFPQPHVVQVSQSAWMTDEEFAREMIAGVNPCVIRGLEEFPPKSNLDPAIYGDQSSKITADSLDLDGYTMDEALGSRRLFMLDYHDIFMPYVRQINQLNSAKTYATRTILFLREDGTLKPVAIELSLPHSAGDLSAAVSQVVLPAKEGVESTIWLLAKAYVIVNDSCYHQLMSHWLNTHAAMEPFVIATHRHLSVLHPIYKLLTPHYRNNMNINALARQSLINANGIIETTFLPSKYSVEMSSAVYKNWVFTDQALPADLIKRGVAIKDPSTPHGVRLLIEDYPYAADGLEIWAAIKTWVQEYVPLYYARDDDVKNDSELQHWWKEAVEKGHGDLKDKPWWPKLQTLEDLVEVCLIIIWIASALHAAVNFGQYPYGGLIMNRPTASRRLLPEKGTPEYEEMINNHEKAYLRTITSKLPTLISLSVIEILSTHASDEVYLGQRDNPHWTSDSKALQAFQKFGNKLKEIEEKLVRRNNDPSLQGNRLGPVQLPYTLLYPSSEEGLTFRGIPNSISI
Protocol: In this test the capacity of a material to inhibit the oxidation of linoleic acid by lipoxidase (EC1.13.1.13) to form a hydroperoxide is measured.
Aqueous 0.2M sodium borate solution (pH 9.0) is used as buffer solution.
A control substrate solution is prepared by dissolving linoleic acid (2.0 ml) in absolute ethanol (60 ml), diluting with distilled water to 100 ml and then adding borate buffer (100 ml) and absolute ethanol (300 ml).
A test substrate solution is prepared in the same way as the control substrate solution except that for the absolute ethanol (300 ml) is substituted the same volume of a 0.5% by weight solution in ethanol of the material to be tested.
A solution of the enzyme lipoxidase in the borate buffer and having an activity within the range of from 15,000 to 40,000 units per ml is prepared.
The activity of the lipoxidase in catalysing the oxidation of linoleic acid is first assayed spectrophotometrically using the control. An automatic continuously recording spectrophotometer is used and the increase in extinction at 234 nm (the peak of hydroperoxide) is measured to follow the course of oxidation, the enzyme concentration used being such that it gives an increase in optical density (ΔOD) at 234 nm within the range of from 0.6 to 1.0 units per minute. The following ingredients are placed in two 3 ml cuvettes:
The lipoxidase solution is added to the control cuvette last and the reaction immediately followed spectrophotometrically for about 3 minutes, with recording of the increase in optical density at 234 nm as a curve on a graph.
The capacity of a material to inhibit the oxidation is then measured using a test sample containing enzyme, substrate and a deodorant material. The following ingredients are placed in two 3 ml cuvettes.
The lipoxidase solution is added to the test sample cuvette last and the course of the reaction immediately followed as before.
The lipoxidase-inhibiting capacity of the material is then calculated from the formula 100 (S1-S2)/S1, where S1 is the slope of the curve obtained with the control and S2 is the slope of the curve obtained with the test sample, and thus expressed as % inhibitor. A material that gives at least 50% inhibition in the test is hereafter referred to as having a lipoxidase-inhibiting capacity of at least 50%.

[1] = Morpholine Test (depression of the partial vapour pressure of morpholine, Raoult variance ratio); type: physicochemical; details: morpholine (0.25 g) and material (1 g), 37°C, headspace GC
Protocol: In this test the capacity of a material to depress the partial vapour pressure of morpholine more than that required by Raoult's Law is measured. Substances that undergo chemical reaction with morpholine, for example aldehydes, are to be regarded as excluded from the test.
Into a sample bottle of capacity 20 ml is introduced morpholine ([…]), the bottle fitted with a serum cap and then maintained at 37°C for 30 minutes for equilibrium to be reached. The gas in the headspace of the bottle is analysed by piercing the serum cap with a capillary needle through which nitrogen at 37°C is passed to increase the pressure in the bottle by a standard amount and then allowing the excess pressure to inject a sample from the headspace into gas chromatograph apparatus, which analyses it and provides a chromatographic trace curve with a peak due to morpholine, the area under which is proportional to the amount of morpholine in the sample.
The procedure is repeated under exactly the same conditions using instead of morpholine alone, morpholine (0.25 g) and the material to be tested (1 g); and also using the material (1 g) without the morpholine to check whether it gives an interference with the morpholine peak (which is unusual).
The procedure is repeated until reproducible results are obtained. The areas under the morpholine peaks are measured and any necessary correction due to interference by the material is made.
A suitable apparatus for carrying out the above procedure is a Perkin-Elmer Automatic GC Multifract F40 for Head Space Analysis. Further details of this method are described by Kolb in "CZ-Chemie-Technik", Vol 1, No 2, 87-91 (1972) and by Jentzsch et al in "Z. Anal. Chem." 236, 96-118 (1968).
The measured areas representing the morpholine concentration are proportional to the partial vapour pressure of the morpholine in the bottle headspace. If A is the area under the morpholine peak when only morpholine is tested and A' is the area due to morpholine when a material is present, the relative lowering of partial vapour pressure of morpholine by the material is given by 1-A'/A.
According to Raoult's Law, if at a given temperature the partial vapour pressure or morpholine in equilibrium with air above liquid morpholine is p, the partial vapour pressure p' exerted by morpholine in a homogeneous liquid mixture of morpholine and material at the same temperature is pM/(M+PC), where M and PC are the molar concentrations of morpholine and material.
The extend to which the behaviour of the mixture departs from Raoult's Law is given by the ratio (1-A'/A)/(87/(87+m/4)) [formula]
The above ratio, which will be referred to as the Raoult variance ratio, is calculated from the test results. Where a material is a mixture of compounds, a calculated or experimentally determined average molecular weight is used for m. A material that depresses the partial vapour pressure of morpholine by at least 10% more than that required by Raoult's Law in the Morpholine Test is one in which the Raoult variance ratio is at least 1.1.

LIC value (lipoxidase (EC1.13.1.13))	RVR value [1]	SMILES
58%	1.22	O=c1ccc2ccccc2o1 [Coumarin]
100%	1.21	COC(=O)c1c(C)cc(O)c(C)c1O [LRG 201]
22%	1.24	OCCc1ccccc1 [Phenylethyl alcohol]
54%	0.98	CC(=O)OC1CCC(C(C)(C)C)CC1 (centres unmarked) [p-t-Butyl cyclohexyl acetate]

Further lines, the compound ahead of its results:

SMILES	LIC value (lipoxidase (EC1.13.1.13))	RVR value [1]
O=C(OCc1ccccc1)c1ccccc1O [Benzyl salicylate]	0%	1.58
CCOc1cc(C=O)ccc1O [Ethyl vanillin]	100%	1.43
CC(C=O)Cc1ccc(C(C)(C)C)cc1 (stereo not drawn) [p-t-Butyl-α-methyl hydrocinnamic aldehyde]	74%	
COc1ccc2ccccc2c1 [β-Naphthyl methyl ether]	100%	
